# Read-outs that look alike come from different tables or passages of the source. Residues, ends and D or L forms follow the SMILES beside them. *: point of attachment. Fluorescein(5-Mal) = O=C1OC2(c3ccc(O)cc3Oc3cc(O)ccc32)c2ccc(N3C(=O)CC(*)C3=O)cc21; X1 = CN(C)c1ccc2c(-c3ccc(N4C(=O)CC(*)C4=O)cc3C(=O)[O-])c3ccc(=[N+](C)C)cc-3oc2c1
# B1: SpPBP1a: S. pneumoniae class A PBP1a (protein)
# chain: MNKPTILRLIKYLSISFLSLVIAAIVLGGGVFFYYVSKAPSLSESKLVATTSSKIYDNKNQLIADLGSERRVNAQANDIPTDLVKAIVSIEDHRFFDHRGIDTIRILGAFLRNLQSNSLQGGSALTQQLIKLTYFSTSTSDQTISRKAQEAWLAIQLEQKATKQEILTYYINKVYMSNGNYGMQTAAQNYYGKDLNNLSLPQLALLAGMPQAPNQYDPYSHPEAAQDRRNLVLSEMKNQGYISAEQYEKAVNTPITDGLQSLKSASNYPAYMDNYLKEVINQVEEETGYNLLTTGMDVYTNVDQEAQKHLWDIYNTDEYVAYPDDELQVASTIVDVSNGKVIAQLGARHQSSNVSFGINQAVETNRDWGSTMKPITDYAPALEYGVYESTATIVHDEPYNYPGTNTPVYNWDRGYFGNITLQYALQQSRNVPAVETLNKVGLNRAKTFLNGLGIDYPSIHYSNAISSNTTESDKKYGASSEKMAAAYAAFANGGTYYKPMYIHKVVFSDGSEKEFSNVGTRAMKETTAYMMTDMMKTVLSYGTGRNAYLAWLPQAGKTGTSNYTDEEIENHIKTSQFVAPDELFAGYTRKYSMAVWTGYSNRLTPLVGNGLTVAAKVYRSMMTYLSEGSNPEDWNIPEGLYRNGEFVFKNGARSTWSSPAPQQPPSTESSSSSSDSSTSQSSSTTPSTNNSTTTNPNNNTQQSNTTPDQQNQNPQPAQP
# modifications: left off: T25 or T18 fragment of adenylate cyclase (vectors pKT25, pUT18C), N-terminal, kept
# notes: S. pneumoniae class A PBP1a
# B2: BsPBP1: B. subtilis class A PBP1 (protein)
# chain: MSDQFNSREARRKANSKSSPSPKKGKKRKKGGLFKKTLFTLLILFVLGVVGGAVTFAVMVSDAPSLDESKLKTPYSSTIYDKNGKEIAEVGAEKRTYVSIDEIPDVVKEAFIATEDARFYEHHGIDPVRIGGALVANFKDGFGAEGGSTITQQVVKNSLLSHQKTLKRKVQEVWLSIQLERNYSKDEILEMYLNRIYFSPRAYGIGKAAEEFFGVTDLSKLTVEQAATLAGMPQSPTAYNPVKNPDKAEKRRNIVLSLMKKQGFISDSQYNKAKKVAVKDEGVVSQKEYEKASTNKYSAFVEEVMKEIDEKSDVDPSADGLKIYTTLDTKAQDKLDELMDGDTVGFTEGMQGGVTLLDTKNGEVRAIGAGRNQPVGGFNYATQTKAQPGSTIKPILDYGPVIENKKWSTYEQIDDSAYTYSNGKPIRDWDRKYLGPISMRYALAQSRNIPALKAFQAVGKDTAVDFANGLGLGLTKDNVTEAYSIGGFGGNDGVSPLTMAGAYSAFGNNGTYNEPHFVKSIEFNDGTKLDLTPKSKSAMSDYTAFMITDMLKTAVKTGTGQLAQVPGVEVAGKTGTTNFDDNEVKRYNIASGGARDSWFVGYTPQYTAAVWTGMGENEAGKKSLSAEEQKVAKRIFAQLIADVDDGSGSFEKPDSVVEATVEKGSNPAKLAGPNTPSDKKLTEYFVKGTAPSTVSKTYEKEEKEETAKLSGLNVKYDKDNQSLTLSWNYDGDATFAVKQSVDGGSYSEIQNSSAKEAVISGVQPGSVYKFEVTAVSDDGKSTASTSYEVPKAEDDEDKKDQQQTDDEKQDDEKTQDDTQTDDSQKDDGQTDQDQTDDSTNDQDKKQDNTNTNPSDNNNQDQSNDNDNDNSNNQDTSDGDSNSGKNDSTGSDTNKNKTDTSNKTQTNSSSIEKTN
# modifications: left off: His6, end not stated, cleaved
# notes: B. subtilis class A PBP1
# B3: BsYpbE130-240^Ser132Cys: disulphide cross-linked dimeric form of BsYpbE130-240 (protein, UniProt P50731 130-240, looked up, variant S132C)
# chain: EDCKPKEQTAADKKQTAVAEKEDSPNKEEATAAAASSSQSTVQQQEQPAEPVQNVPNRVVKHTVQKKETLYRISMKYYKSRTGEEKIRAYNHLNGNDVYTGQVLDIPLMDE
# modifications: disulphide-linked dimer
# Legend:
# [1] = molecular target: T1, BsGpsB1-68 (Bacillus subtilis, UniProt P0CI74); type: binding; settings: FP
# T1 construct: His6 (N, cleaved yes); made in house; host or cells: E. coli BL21(DE3)
# Excerpt: (§1) 75 the BsGpsB5-64:BsPBP11-17 complex.
# [2] = molecular target: T1, BsGpsB1-68; settings: FP, compared with residue-16-labelled peptide; ref 3 (supplement); cited from earlier work
# [3] = system: GpsB; test: Displacement of pre-bound PBP peptides from GpsB; type: binding; settings: 100-fold molar excess of free L-arginine
# [4] = molecular target: T2, SpGpsB1-63 (Streptococcus pneumoniae, UniProt Q8DR57); test: Fluorescence polarisation binding to SpGpsB1-63; settings: FP
# T2 construct: The SpGpsB1-63 expression construct (pET28SpGpsB1-63) was prepared by PCR amplification of gpsB; His6 (N, cleaved yes); made in house; host or cells: E. coli BL21(DE3)
# Excerpt: as §1
# [5] = molecular target: T3, SpGpsB1-63Asp33Ala (Streptococcus pneumoniae, UniProt Q8DR57, D33A); test: Fluorescence polarisation binding to SpGpsB1-63Asp33Ala; settings: FP, SpGpsB1-63Asp33Ala relative to wild-type SpGpsB1-63
# T3 construct: His6 (N, cleaved yes); made in house; host or cells: E. coli BL21(DE3)
# Excerpt: as §1
# [6] = system: SpGpsB; test: BACTH interaction with SpGpsB; type: cell-based, Streptococcus pneumoniae; settings: E. coli BTH101, 30 °C, 36-40 h
# Excerpt: The target genes were amplified by the PCR from S. pneumoniae D39 chromosomal DNA. PCR fragments for pbp2a, mreC, pbp1a, pbp2x and pbp2b were purified, digested with appropriate restriction enzymes and cloned into the corresponding sites of the pKT25/pUT18C vectors to generate plasmids encoding the corresponding hybrid proteins fused at the C-terminal ends of the T25 and T18 fragments, respectively. Plasmids pKNT25-gpsB/pUT18-gpsB, pKNT25-stkP/pUT18-stkP and pKNT25-ezrA/pUT18-ezrA were already constructed. The mutated and truncated gpsB and pbp2a alleles were amplified from their respective DNA templates and the corresponding PCR products cloned into the corresponding sites of the BACTH vectors as described above for the wild-type alleles. E. coli DH5α transformants were selected on LB agar plates containing ampicillin (100 μg^−1mL^−1) or kanamycin (50 μg^−1mL^−1) and 0.4% glucose to repress leaky expression.
# BACTH experiments, each pair of plasmids was co-transformed into the E. coli cya- strain BTH101 and co-transformation mixtures were spotted onto LB agar plates supplemented with ampicillin ([…]), kanamycin ([…]) and X-Gal (40 μg^−1mL^−1), followed by incubation at 30 °C. Plates were inspected and photographed after 24 and 40 h. Plasmid pairs pKNT25/pUT18 and pKT25-zip/pUT18C-zip were used as negative and positive controls, respectively. […]
# [7] = system: BsYrrS; test: BACTH interaction with BsYrrS; type: cell-based, Bacillus subtilis; settings: E. coli BTH101, nutrient agar, 30 °C
# [8] = Peptidoglycan pulldown assay; type: binding, Bacillus subtilis; settings: 25 µg protein + 66 µg PG in 100 µL PBS, room temperature 30 min, SDS-PAGE
# Method: PG pulldown assays were carried out in PBS buffer. B. subtilis PG (SigmaAldrich) was prepared as a 10 mg^−1 mL^−1 stock solution in PBS containing 0.02% sodium azide. 25 µg of protein were added to a 100 µL sample containing 66 µg of PG and the mixture incubated with gentle agitation at room temperature for 30 min. The mixture was centrifuged at 16,000 × g for 7 min, the supernatant removed and the pellet resuspended in 1 mL of ice-cold PBS and immediately centrifuged for 2 min at 16,000 × g. The pellet was resuspended in 1 mL of the appropriate buffer and centrifuged for 2 min at 16,000 × g. Finally the pellet was boiled for 3 min in 60 μL SDS-PAGE loading buffer before analysis by SDS-PAGE; the SDS-PAGE loading buffer lacked reducing agents for YpbE130-240^Ser132Cys samples.
# T1 sequence (P0CI74 1-68): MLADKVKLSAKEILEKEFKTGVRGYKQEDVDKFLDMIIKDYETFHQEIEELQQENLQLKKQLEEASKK
# T2 sequence (Q8DR57 1-63): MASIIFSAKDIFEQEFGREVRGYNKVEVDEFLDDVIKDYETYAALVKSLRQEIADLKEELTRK
# T3 sequence (Q8DR57 1-63 D33A): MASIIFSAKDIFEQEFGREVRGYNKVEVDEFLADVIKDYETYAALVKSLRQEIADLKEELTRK
molecule,measurement,setting,value
CSCC[C@H](NC(=O)[C@H](CO)NC(=O)CN)C(=O)N[C@@H](C)C(=O)N[C@@H](CC(=O)O)C(=O)N[C@@H](CCC(N)=O)C(=O)N[C@@H](Cc1ccccc1)C(=O)N[C@@H](CC(N)=O)C(=O)N[C@@H](CO)C(=O)N[C@@H](CCCNC(=N)N)C(=O)N[C@@H](CCC(=O)O)C(=O)N[C@@H](C)C(=O)N[C@@H](CCCNC(=N)N)C(=O)N[C@@H](CCCNC(=N)N)C(=O)N[C@@H](CCCCN)C(=O)N[C@@H](C)C(=O)N[C@@H](CC(N)=O)C(=O)N[C@@H](CO)C(=O)N[C@@H](CCCCN)C(=O)N[C@@H](CO)C(=O)N[C@@H](CO)C(=O)N1CCC[C@H]1C(=O)N[C@@H](CO)C(=O)N1CCC[C@H]1C(=O)N[C@@H](CCCCN)C(=O)N[C@@H](CCCCN)C(=O)NCC(=O)N[C@@H](CCCCN)C(=O)N[C@@H](CCCCN)C(=O)N[C@@H](CCCNC(=N)N)C(=O)N[C@@H](CCCCN)C(=O)N[C@@H](CCCCN)C(=O)N[C@@H](CSC1CC(=O)N(c2ccc3c(c2)C(=O)OC32c3ccc(O)cc3Oc3cc(O)ccc32)C1=O)C(=O)NCC(=O)O (stereo partly drawn) [Fluorescein-BsPBP11-32] (H-GSMADQFNSREARRKANSKSSPSPKKGKKRKKC(Fluorescein(5-Mal))G-OH; N-terminus and C-terminus assumed),binding to BsGpsB1-68 (in words),[1]; listed as BsPBP1_1-32 peptide labelled with fluorescein at position 31,the measured affinity was the same as if the fluorophore was at position 16
same,binding to BsGpsB1-68 (in words),[1]; listed as peptide labelled at the C-terminus with fluorescein,same affinity as a peptide labelled
same,affinity of residue-31-labelled peptide (in words),[2],same affinity
N=C(N)NCCC[C@H](N)C(=O)O [L-arginine],displacement of pre-bound PBP peptides from GpsB,[3],does not displace pre-bound PBP peptides from GpsB
CC[C@H](C)[C@H](NC(=O)[C@@H]1CCCN1C(=O)[C@H](CSC1CC(=O)N(c2ccc(-c3c4ccc(=[N+](C)C)cc-4oc4cc(N(C)C)ccc34)c(C(=O)[O-])c2)C1=O)NC(=O)[C@@H](NC(=O)[C@H](CCC(N)=O)NC(=O)[C@H](C)NC(=O)[C@H](CC(C)C)NC(=O)[C@H](CCCCN)NC(=O)[C@H](CCCCN)NC(=O)[C@H](CCCNC(=N)N)NC(=O)[C@H](CC(=O)O)NC(=O)[C@H](CO)NC(=O)[C@H](CCCNC(=N)N)NC(=O)[C@H](CO)NC(=O)[C@H](CCCNC(=N)N)NC(=O)[C@H](CCCNC(=N)N)NC(=O)[C@H](CC(C)C)NC(=O)[C@@H](NC(=O)[C@@H](NC(=O)[C@H](CO)NC(=O)[C@H](CC(=O)O)NC(=O)[C@H](CO)NC(=O)[C@H](CC(=O)O)NC(=O)[C@H](CCSC)NC(=O)[C@H](CO)NC(=O)CN)[C@@H](C)O)[C@@H](C)CC)C(C)C)C(=O)O (stereo partly drawn) [TAMRA-SpPBP2a23-45] (H-GSMDSDSTILRRSRSDRKKLAQVC(X1)PI-OH),binding to SpGpsB1-63 (in words),[4],interacts
same,reduction in affinity on GpsB mutation,[5],~ 40 fold
B1,BACTH interaction with SpGpsB,[6],interacted
B2,BACTH interaction with BsYrrS,[7],interacted
B3,binding to peptidoglycan,[8],"enhanced considerably relative to the monomeric, cysteine-free version"
